Laboratory results: ChEMBL document CHEMBL5338706, “Discovery of a potent and selective proteolysis targeting chimera (PROTAC) degrader of NSD3 histone methyltransferase” (Eur J Med Chem, 2022)
Active and inactive are the calls of the source. No cut-off for these calls is given here.

tested on: A549; assay: Antiproliferative activity against human A549 cells at upto 10 uM incubated for 3 days by CCK-8 method; type: functional, cell-based; details: time 3.0 day

SMILES | Activity
Cc1cc(CN)cc(C)c1-c1ncn(C)c1-c1ccnc2cc(F)ccc12 | inactive

biological target: T1, Histone-lysine N-methyltransferase NSD3 (Homo sapiens) (UniProt Q9BZ95); assay: Induction of NSD3 degradation in human NCI-H1703 cells at 5 uM incubated for 72 hrs by Western blot analysis; type: cell-based; details: not given
T1 sequence (whole entry): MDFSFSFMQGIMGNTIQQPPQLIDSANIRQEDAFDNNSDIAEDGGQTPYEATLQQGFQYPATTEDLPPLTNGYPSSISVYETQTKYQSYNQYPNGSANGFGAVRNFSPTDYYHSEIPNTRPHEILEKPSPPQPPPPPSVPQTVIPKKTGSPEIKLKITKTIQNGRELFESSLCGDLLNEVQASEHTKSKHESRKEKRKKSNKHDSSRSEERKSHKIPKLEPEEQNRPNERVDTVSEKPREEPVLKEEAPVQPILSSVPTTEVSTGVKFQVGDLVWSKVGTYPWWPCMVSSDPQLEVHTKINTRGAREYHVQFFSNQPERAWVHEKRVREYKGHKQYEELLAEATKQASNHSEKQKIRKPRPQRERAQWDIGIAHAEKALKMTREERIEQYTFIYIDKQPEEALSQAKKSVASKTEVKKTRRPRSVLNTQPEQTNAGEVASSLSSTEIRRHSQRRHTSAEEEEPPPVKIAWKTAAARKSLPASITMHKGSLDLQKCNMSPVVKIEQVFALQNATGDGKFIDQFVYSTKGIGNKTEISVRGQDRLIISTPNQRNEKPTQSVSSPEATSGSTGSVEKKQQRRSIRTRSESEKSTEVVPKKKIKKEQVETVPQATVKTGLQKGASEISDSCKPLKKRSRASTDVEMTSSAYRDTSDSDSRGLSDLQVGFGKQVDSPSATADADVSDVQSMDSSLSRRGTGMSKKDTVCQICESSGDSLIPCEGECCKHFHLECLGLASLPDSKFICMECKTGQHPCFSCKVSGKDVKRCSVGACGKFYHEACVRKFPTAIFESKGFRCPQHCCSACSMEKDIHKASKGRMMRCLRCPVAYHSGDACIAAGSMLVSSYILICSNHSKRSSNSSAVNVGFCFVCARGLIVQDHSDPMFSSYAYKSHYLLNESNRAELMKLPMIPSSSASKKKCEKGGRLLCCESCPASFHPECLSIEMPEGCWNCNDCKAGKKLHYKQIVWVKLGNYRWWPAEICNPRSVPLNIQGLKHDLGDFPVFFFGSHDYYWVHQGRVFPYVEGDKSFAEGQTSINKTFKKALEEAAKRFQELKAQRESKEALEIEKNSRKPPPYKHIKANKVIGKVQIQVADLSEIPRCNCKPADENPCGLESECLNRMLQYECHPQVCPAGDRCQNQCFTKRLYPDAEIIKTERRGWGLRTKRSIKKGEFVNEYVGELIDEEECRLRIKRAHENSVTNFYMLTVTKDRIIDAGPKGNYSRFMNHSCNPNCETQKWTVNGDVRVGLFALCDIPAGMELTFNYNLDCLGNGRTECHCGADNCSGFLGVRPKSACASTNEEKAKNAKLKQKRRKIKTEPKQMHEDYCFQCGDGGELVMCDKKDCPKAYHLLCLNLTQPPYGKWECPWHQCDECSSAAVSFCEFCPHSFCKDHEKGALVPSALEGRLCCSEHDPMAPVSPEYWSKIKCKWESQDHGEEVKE

SMILES | NSD3 degradation [%]
Cc1cc(CNCCCCCCCCCCCCCCCC(=O)N[C@H](C(=O)N2C[C@H](O)C[C@H]2C(=O)N[C@@H](C)c2ccc(-c3scnc3C)cc2)C(C)(C)C)cc(C)c1-c1ncn(C)c1-c1ccnc2cc(F)ccc12 | 16.4
Cc1cc(CNCCOCCOCCOCC(=O)N[C@H](C(=O)N2C[C@H](O)C[C@H]2C(=O)N[C@@H](C)c2ccc(-c3scnc3C)cc2)C(C)(C)C)cc(C)c1-c1ncn(C)c1-c1ccnc2cc(F)ccc12 | 10.7
Cc1cc(CNCCOCCOCCOCCC(=O)N[C@H](C(=O)N2C[C@H](O)C[C@H]2C(=O)N[C@@H](C)c2ccc(-c3scnc3C)cc2)C(C)(C)C)cc(C)c1-c1ncn(C)c1-c1ccnc2cc(F)ccc12 | 7.4
Cc1cc(CNCCCCCCCCCCCCCC(=O)N[C@H](C(=O)N2C[C@H](O)C[C@H]2C(=O)N[C@@H](C)c2ccc(-c3scnc3C)cc2)C(C)(C)C)cc(C)c1-c1ncn(C)c1-c1ccnc2cc(F)ccc12 | 45.2
Cc1cc(CNCCOCCOCCC(=O)N[C@H](C(=O)N2C[C@H](O)C[C@H]2C(=O)N[C@@H](C)c2ccc(-c3scnc3C)cc2)C(C)(C)C)cc(C)c1-c1ncn(C)c1-c1ccnc2cc(F)ccc12 | -7.2
Cc1cc(CNCCOCCOCCOCCOCCC(=O)N[C@H](C(=O)N2C[C@H](O)C[C@H]2C(=O)N[C@@H](C)c2ccc(-c3scnc3C)cc2)C(C)(C)C)cc(C)c1-c1ncn(C)c1-c1ccnc2cc(F)ccc12 | 7.7
Cc1cc(CNCCCCCCCCCCCCCCC(=O)N[C@H](C(=O)N2C[C@H](O)C[C@H]2C(=O)N[C@@H](C)c2ccc(-c3scnc3C)cc2)C(C)(C)C)cc(C)c1-c1ncn(C)c1-c1ccnc2cc(F)ccc12 | 33.1
Cc1cc(CNCCCCCCCCCCCCC(=O)N[C@H](C(=O)N2C[C@H](O)C[C@H]2C(=O)N[C@@H](C)c2ccc(-c3scnc3C)cc2)C(C)(C)C)cc(C)c1-c1ncn(C)c1-c1ccnc2cc(F)ccc12 | 38
Cc1cc(CNCCCCCCCCCCNc2cccc3c2C(=O)N(C2CCC(=O)NC2=O)C3=O)cc(C)c1-c1ncn(C)c1-c1ccnc2cc(F)ccc12 (stereo not drawn) | 21
Cc1cc(CNCCCCCCCCCCCNc2cccc3c2C(=O)N(C2CCC(=O)NC2=O)C3=O)cc(C)c1-c1ncn(C)c1-c1ccnc2cc(F)ccc12 (stereo not drawn) | 15.6
Cc1cc(CNCCCCCCCCCCCCNc2cccc3c2C(=O)N(C2CCC(=O)NC2=O)C3=O)cc(C)c1-c1ncn(C)c1-c1ccnc2cc(F)ccc12 (stereo not drawn) | 1.5
Cc1cc(CNCCCCCCCCCNc2cccc3c2C(=O)N(C2CCC(=O)NC2=O)C3=O)cc(C)c1-c1ncn(C)c1-c1ccnc2cc(F)ccc12 (stereo not drawn) | 1.7

Now from value to molecule:

NSD3 degradation [%] | SMILES
1.5 | Cc1cc(CNCCCCCCCCCCCC(=O)N[C@H](C(=O)N2C[C@H](O)C[C@H]2C(=O)N[C@@H](C)c2ccc(-c3scnc3C)cc2)C(C)(C)C)cc(C)c1-c1ncn(C)c1-c1ccnc2cc(F)ccc12
11.1 | Cc1cc(CNCCCCN2CCN(CC(=O)N[C@H](C(=O)N3C[C@H](O)C[C@H]3C(=O)N[C@@H](C)c3ccc(-c4scnc4C)cc3)C(C)(C)C)CC2)cc(C)c1-c1ncn(C)c1-c1ccnc2cc(F)ccc12
25.8 | Cc1cc(CNCCCN2CCN(CCC(=O)N[C@H](C(=O)N3C[C@H](O)C[C@H]3C(=O)N[C@@H](C)c3ccc(-c4scnc4C)cc3)C(C)(C)C)CC2)cc(C)c1-c1ncn(C)c1-c1ccnc2cc(F)ccc12
13.8 | Cc1cc(CNCCCN2CCN(CCCC(=O)N[C@H](C(=O)N3C[C@H](O)C[C@H]3C(=O)N[C@@H](C)c3ccc(-c4scnc4C)cc3)C(C)(C)C)CC2)cc(C)c1-c1ncn(C)c1-c1ccnc2cc(F)ccc12
0.7 | Cc1cc(CNCCCCCCCCC(=O)N[C@H](C(=O)N2C[C@H](O)C[C@H]2C(=O)N[C@@H](C)c2ccc(-c3scnc3C)cc2)C(C)(C)C)cc(C)c1-c1ncn(C)c1-c1ccnc2cc(F)ccc12
6.3 | Cc1cc(CNCCCCCCC(=O)N[C@H](C(=O)N2C[C@H](O)C[C@H]2C(=O)N[C@@H](C)c2ccc(-c3scnc3C)cc2)C(C)(C)C)cc(C)c1-c1ncn(C)c1-c1ccnc2cc(F)ccc12
-4.2 | Cc1cc(CNCCCCC(=O)N[C@H](C(=O)N2C[C@H](O)C[C@H]2C(=O)N[C@@H](C)c2ccc(-c3scnc3C)cc2)C(C)(C)C)cc(C)c1-c1ncn(C)c1-c1ccnc2cc(F)ccc12
-2.4 | Cc1cc(CNCCCCCCCC(=O)N[C@H](C(=O)N2C[C@H](O)C[C@H]2C(=O)N[C@@H](C)c2ccc(-c3scnc3C)cc2)C(C)(C)C)cc(C)c1-c1ncn(C)c1-c1ccnc2cc(F)ccc12
9.1 | Cc1cc(CNCCN2CCN(CCCC(=O)N[C@H](C(=O)N3C[C@H](O)C[C@H]3C(=O)N[C@@H](C)c3ccc(-c4scnc4C)cc3)C(C)(C)C)CC2)cc(C)c1-c1ncn(C)c1-c1ccnc2cc(F)ccc12
37.6 | Cc1cc(CNCCCCCCN2CCN(CC(=O)N[C@H](C(=O)N3C[C@H](O)C[C@H]3C(=O)N[C@@H](C)c3ccc(-c4scnc4C)cc3)C(C)(C)C)CC2)cc(C)c1-c1ncn(C)c1-c1ccnc2cc(F)ccc12
1.6 | Cc1cc(CNCCCCCC(=O)N[C@H](C(=O)N2C[C@H](O)C[C@H]2C(=O)N[C@@H](C)c2ccc(-c3scnc3C)cc2)C(C)(C)C)cc(C)c1-c1ncn(C)c1-c1ccnc2cc(F)ccc12
1.2 | Cc1cc(CNCCCCCCCCCC(=O)N[C@H](C(=O)N2C[C@H](O)C[C@H]2C(=O)N[C@@H](C)c2ccc(-c3scnc3C)cc2)C(C)(C)C)cc(C)c1-c1ncn(C)c1-c1ccnc2cc(F)ccc12
53.5 | Cc1cc(CNCCCCCN2CCN(CC(=O)N[C@H](C(=O)N3C[C@H](O)C[C@H]3C(=O)N[C@@H](C)c3ccc(-c4scnc4C)cc3)C(C)(C)C)CC2)cc(C)c1-c1ncn(C)c1-c1ccnc2cc(F)ccc12

tested on: NCI-H1703; assay: Antiproliferative activity against human NCI-H1703 cells at upto 10 uM incubated for 6 days by CCK-8 method; type: functional, cell-based; details: time 6.0 day

SMILES | Activity
Cc1cc(CN)cc(C)c1-c1ncn(C)c1-c1ccnc2cc(F)ccc12 | inactive

biological target: T1, Histone-lysine N-methyltransferase NSD3 (Homo sapiens); assay: Induction of NSD3 degradation in human NCI-H1703 cells at upto 9 uM incubated for 72 hrs by Western blot analysis; type: cell-based; details: not given

SMILES | Activity
Cc1cc(CN)cc(C)c1-c1ncn(C)c1-c1ccnc2cc(F)ccc12 | inactive
